Assays:
[1] = Transmittance of transparent cured film; type: physicochemical; conditions: for Average transmittance (700 nm to 400 nm) Transparent cured film / Transmittance (400 nm) Transparent cured film: cured at exposure energy quantity 80 mJ/cm^2
Experimental: Transparent cured films were formed by using the photosensitive compositions obtained in Examples 1 to 9, Examples 2-1 to 2-10, and Comparative Examples 1 and 2 in the same manner as in the evaluation 1 except that the exposure energy quantity was set to 80 mJ/cm^2. The transmittance (%) of each of the resultant transparent cured films at 400 nm and the average transmittance (%) thereof in the range of from 400 to 700 nm were measured with a spectrophotometer (manufactured by Hitachi High-Technologies Corporation, trade name: “U-3900H”, quartz cell, optical path length; 1 cm). A higher transmittance at 400 nm means less coloring with a yellow color. In addition, a higher transmittance of a coating film means a higher transmitting property of a pattern to be formed.

[2] = Evaluation 1: 20-μm pattern line width of transparent photosensitive composition; conditions: for 20-μm pattern line width: transparent composition, initiator 0.4 mmol
Experimental: After that, the mixture was filtered with a membrane filter having an aperture of 5 μm to provide a photosensitive composition.
It should be noted that the fluorene-based compound as a photopolymerization initiator was used in such an amount that its molar quantity was kept constant in the respective examples and comparative examples.
The glass substrate after the application was dried with a fan dryer at 90° C. for 10 minutes. Thus, a coating film (photosensitive layer) was formed. Next, the film was exposed to light having an exposure energy quantity of 5 mJ/cm^2, 10 mJ/cm^2, 20 mJ/cm^2, 40 mJ/cm^2, 60 mJ/cm^2, or 80 mJ/cm^2 by using a high-pressure mercury lamp (manufactured by Karl Suss, trade name: “MASK ALIGNER”) through a negative mask (mask width: 20 μm). Next, the resultant was immersed in a 0.1 wt % aqueous solution of tetramethylammonium hydroxide (TMAH) and then rinsed with pure water. The remaining cured film was subjected to the following evaluation.
(§1) A larger value for the line width means higher sensitivity.

[3] = Decomposition point by thermal analysis (TG-DTA); type: physicochemical; conditions: 5.0 mg
Experimental: The compounds 1, 2, 4, 6, 8, 9, 11, 12, 13, 15, 16, D-1, D-3, D-4, D-7, D-8, D-9, D-12, D-14, D-15, D-20, C-1, and C-2 were each subjected to measurement with a thermal analysis apparatus (TG-DTA) (manufactured by Rigaku Corporation, trade name: “Thermo Plus EVO TG 8120”) by using 5.0 mg thereof.

[4] = Average transmittance of composition; type: physicochemical; conditions: photosensitive composition, quartz cell, optical path length 1 cm
Experimental: The average transmittance (%) of each of the photosensitive resin compositions obtained in Examples 1 to 9, Examples 2-1 to 2-10, and Comparative Examples 1 and 2 in the range of from 400 nm to 700 nm was measured with a spectrophotometer (manufactured by Hitachi High-Technologies Corporation, trade name: “U-3900H”, quartz cell, optical path length; 1 cm).

[5] = Absorption coefficient (absorbance of 0.001% solution in tetrahydrofuran); type: physicochemical; conditions: for Λ max (absorption maximum wavelength): 0.001% (wt/vol) in tetrahydrofuran, from 280 nm to 400 nm; for Absorption coefficient at 365 nm / Absorption coefficient at Λ max: 0.001% (wt/vol) solution in tetrahydrofuran
Experimental: A 0.001% (wt/vol) solution of each of the compounds 1, 2, 4, 6, 8, 9, 11, 12, 13, 15, 16, D-1, D-3, D-4, D-7, D-8, D-9, D-12, D-14, D-15, D-20, C-1, and C-2 in tetrahydrofuran was prepared, and its absorbance was measured with a spectrophotometer (manufactured by Hitachi High-Technologies Corporation, trade name: “U-3900H”). An absorption maximum wavelength (Amax) at a wavelength of from 280 nm to 400 nm was read from an absorption spectrum obtained with the spectrophotometer.

[6] = Evaluation 3: 20-μm pattern line width of black photosensitive composition; conditions: black composition (carbon black, cardo resin), initiator 0.4 mmol
Description: The mixture was filtered with a membrane filter having an aperture of 5 μm to provide a photosensitive composition.
Photosensitive compositions were each obtained in the same manner as in Example 10 except that the used fluorene-based compound and its usage were changed as shown in Table 5.
Each of the photosensitive compositions obtained in Examples 10 to 15, Examples 2-11 to 2-20, and Comparative Example 3 was applied onto a glass substrate with a spin coater (manufactured by Kyowariken Co., Ltd., trade name: “K-359SD1”) so that its thickness after drying became 1.0 μm. The glass substrate after the application was dried with a fan dryer at 90° C. for 10 minutes. Thus, a coating film (photosensitive layer) was formed. Next, the film was exposed to light having an exposure energy quantity of 10 mJ/cm^2, 20 mJ/cm^2, 40 mJ/cm^2, 60 mJ/cm^2, or 80 mJ/cm^2 by using a high-pressure mercury lamp (manufactured by Karl Suss, trade name: “MASK ALIGNER”) through a negative mask (mask width: 20 μm). Next, the resultant was immersed in a 0.1 wt % aqueous solution of tetra methyl ammonium hydroxide (TMAH) and then rinsed with pure water. The remaining cured film was subjected to the following evaluation. In addition, FIGS. 2, 3, and 6 show microscope photographs of black cured films obtained by using the photosensitive compositions of Examples 10 and 11, and Comparative Example 3, and FIGS. 7 to 11 show microscope photographs of black cured films obtained by using the photosensitive compositions of Examples 2-11, 2-13, 2-14, 2-17, and 2-18.
as §1

[7] = Solubility in PGME, PGMEA and ethyl lactate; type: physicochemical; conditions: room temperature
Experimental: An evaluation for solubility was performed in accordance with the following evaluation criteria based on the dissolution amount.
A: 10 Parts by weight or more of the photopolymerization initiator is dissolved.
B: An amount in the range of from 5 parts by weight or more to less than 10 parts by weight of the photopolymerization initiator is dissolved.
C: An amount in the range of from 2 parts by weight or more to less than 5 parts by weight of the photopolymerization initiator is dissolved.
D: Less than 2 parts by weight of the photopolymerization initiator is dissolved.

[8] = exposure energy quantity 10 mJ/cm^2
[9] = exposure energy quantity 20 mJ/cm^2
[10] = exposure energy quantity 40 mJ/cm^2
[11] = exposure energy quantity 60 mJ/cm^2
[12] = exposure energy quantity 80 mJ/cm^2
[13] = photopolymerization initiator containing the compound
[14] = exposure energy quantity 5 mJ/cm^2

SMILES | Average transmittance (700 nm to 400 nm) Transparent cured film [1] | Transmittance (400 nm) Transparent cured film [1] | 20-μm pattern line width [2, 8] | 20-μm pattern line width [2, 9] | 20-μm pattern line width [2, 10] | 20-μm pattern line width [2, 11] | 20-μm pattern line width [2, 12] | Decomposition point [3] | Average transmittance (700 nm to 400 nm) Solution [4] | Λ max (absorption maximum wavelength) [5] | Absorption coefficient at 365 nm [5] | Absorption coefficient at Λ max [5] | 20-μm pattern line width ([6]; 10 mJ/cm^2) | 20-μm pattern line width ([6]; 20 mJ/cm^2) | 20-μm pattern line width ([6]; 40 mJ/cm^2) | 20-μm pattern line width ([6]; 60 mJ/cm^2) | 20-μm pattern line width ([6]; 80 mJ/cm^2) | 20-μm pattern line width [2, 14] | further results
CCCCCCC1(CCCCCC)c2cc(C(=O)c3ccc([N+](=O)[O-])cc3)ccc2-c2ccc(C(CC(C)N(OC(C)=O)C(C)=O)=NOC(C)=O)cc21 (racemic) [Compound 12] | 99.8% | 99.7% | 19.8 | 20.0 | 21.0 | 21.2 | 21.5 | 195.2 °C | 77.8% | 335.5 nm | 11.8 mL/mg/cm | 43.0 mL/mg/cm | – | – | – | – | – | – | –
CCCCCCC1(CCCCCC)c2cc(C(=O)c3ccc(F)cc3)ccc2-c2ccc(/C(CC(C)N(OC(C)=O)C(C)=O)=N\OC(C)=O)cc21 (centres unmarked) [Compound 9] | 100.0% | 99.4% | 19.9 | 20.5 | 21.3 | 22.2 | 22.8 | 192.7 °C | 94.0% | 330.0 nm | 3.0 mL/mg/cm | 54.0 mL/mg/cm | 19.9 | 20.5 | 21.3 | 22.2 | 22.8 | – | transparency of photosensitive composition and formed product (in words) [1, 13]: additionally excellent transparency
CCCCCCC1(CCCCCC)c2cc(C(=O)C(=NOC(C)=O)c3cc(C)ccc3C)ccc2-c2ccc(C(=O)c3ccc([N+](=O)[O-])cc3)cc21 [Compound 13] | 99.4% | 97.0% | 19.4 | 19.6 | 19.8 | 20.6 | 21.0 | 167.1 °C | 79.2% | 338.5 nm | 9.2 mL/mg/cm | 36.3 mL/mg/cm | – | – | – | – | – | – | –
CCn1c2ccc(/C(=N\OC(C)=O)c3ccc(OC(C)COC)cc3C)cc2c2cc([N+](=O)[O-])ccc21 (centres unmarked) [Compound C-2, reference compound] | 95.1% | 72.7% | 21.3 | 22.3 | 23.6 | 23.5 | 24.0 | 264.0 °C | 75.9% | 369.0 nm | 26.8 mL/mg/cm | 27.2 mL/mg/cm | – | – | – | – | – | – | Solubility Ethyl lactate ([7]; in 100 parts by weight of ethyl lactate): C (An amount in the range of from 2 parts by weight or more to less than 5 parts by weight of the photopolymerization initiator is dissolved.); Solubility PGMEA ([7]; in 100 parts by weight of propylene glycol monomethyl ether acetate): B (An amount in the range of from 5 parts by weight or more to less than 10 parts by weight of the photopolymerization initiator is dissolved.); Solubility PGME ([7]; in 100 parts by weight of propylene glycol monomethyl ether): C (An amount in the range of from 2 parts by weight or more to less than 5 parts by weight of the photopolymerization initiator is dissolved.)
CCCC1(CCC)c2cc(C(CCCSc3ccc(Cl)cc3)=NOC(C)=O)ccc2-c2ccc([N+](=O)[O-])cc21 [Compound D-14] | 99.5% | 92.7% | 20.6 | 21.7 | 22.8 | – | 23.2 | 186.9 °C | 65.1% | 345.5 nm | 36.3 mL/mg/cm | 53.9 mL/mg/cm | 19.9 | 20.6 | 21.7 | 22.8 | 23.2 | 19.9 | sensitivity to the active energy ray (in words) [2, 13]: additionally high sensitivity to the active energy ray
CCCC1(CCC)c2cc(C(=O)C(CCSc3ccc(Cl)cc3)=NOC(C)=O)ccc2-c2ccc([N+](=O)[O-])cc21 [Compound D-15] | 99.1% | 91.9% | 19.9 | 20.7 | 21.4 | – | 22.3 | 202.1 °C | 86.2% | 346.0 nm | 36.7 mL/mg/cm | 52.6 mL/mg/cm | 19.5 | 19.9 | 20.7 | 21.4 | 22.3 | 19.5 | –

Source: US9684238B2, “Fluorene-type compound, photopolymerization initiator comprising said fluorene-type compound, and photosensitive composition containing said photopolymerization initiator” (TOKYO OHKA KOGYO CO., LTD., priority 2012, dated 2017)
